Source: PubChem BioAssay AID1963434 (Molecular Pharmacology Branch, DTP, NCI, 2024)
Values joined by “and” are separate entries in the source; they are usually repeats but may differ in a detail not shown here. Identical values can stand only once. Values belong to the compound of their own block, whether it stands above or below them.

System: 755483-174-R-J1-PDC complex spheroid growth, percent test/control
Assay: Anticancer human tumor 755483-174-R-J1-PDC patient-derived rhabdomyosarcoma cell line growth inhibition [Asc]
Settings: for viability, T/C: stronger effect = lower value
How it was run: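 Spheroid model: tumor line + HUVEC + hMSC. Single agents and combinations; top conc. at/near clinical Cmax (10 microM if undetermined), half-log dilutions. DMSO stocks at 800-fold test concentration.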

[1] = curve of first compound, second compound 0.1 µM
[2] = curve of first compound, second compound 0.316 µM
[3] = curve of first compound, second compound 1 µM
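Also: spheroids exposed to compounds for seven days before readout.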

IC50 (curve of first compound, second compound 0.03 µM): 1.7 µM | IC50 (curve of first compound, second compound 0.0949 µM): 2.56 µM | IC50 (curve of first compound, second compound 0.3 µM): 1.61 µM | IC50 (curve of first compound, second compound 0.949 µM): 1.57 µM | IC50 (curve of first compound, second compound 3 µM): 1.11 µM
SMILES: O=C(c1cc(Cc2n[nH]c(=O)c3ccccc23)ccc1F)N1CCN(C(=O)C2CC2)CC1 + CCN1C(C(=O)NC23CCC(C(=O)O)(CC2)CC3)C(c2cccc(Cl)c2F)C2(C(=O)Nc3cc(Cl)ccc32)C12CCCCC2
viability, T/C (second compound 0.03 µM, first compound 0.0316 µM): 58.3% | viability, T/C (second compound 0.03 µM, first compound 0.1 µM): 60.6% | viability, T/C (second compound 0.03 µM, first compound 0.316 µM): 68.3% | viability, T/C (second compound 0.03 µM, first compound 1 µM): 48.4% | viability, T/C (second compound 0.03 µM, first compound 3.16 µM): 46% | viability, T/C (second compound 0.03 µM, first compound 10 µM): 23.4% | viability, T/C (second compound 0.0949 µM, first compound 0.0316 µM): 79.4% | viability, T/C (second compound 0.0949 µM, first compound 0.1 µM): 77% | viability, T/C (second compound 0.0949 µM, first compound 0.316 µM): 72% | viability, T/C (second compound 0.0949 µM, first compound 1 µM): 64.3% | viability, T/C (second compound 0.0949 µM, first compound 3.16 µM): 46.5% | viability, T/C (second compound 0.0949 µM, first compound 10 µM): 26.1% | viability, T/C (second compound 0.3 µM, first compound 0.0316 µM): 80.3% | viability, T/C (second compound 0.3 µM, first compound 0.1 µM): 63% | viability, T/C (second compound 0.3 µM, first compound 0.316 µM): 55.8% | viability, T/C (second compound 0.3 µM, first compound 1 µM): 57.7% | viability, T/C (second compound 0.3 µM, first compound 3.16 µM): 52% | viability, T/C (second compound 0.3 µM, first compound 10 µM): 28.6% | viability, T/C (second compound 0.949 µM, first compound 0.0316 µM): 86.2% | viability, T/C (second compound 0.949 µM, first compound 0.1 µM): 69.2% | viability, T/C (second compound 0.949 µM, first compound 0.316 µM): 66% | viability, T/C (second compound 0.949 µM, first compound 1 µM): 58.4% | viability, T/C (second compound 0.949 µM, first compound 3.16 µM): 44.2% | viability, T/C (second compound 0.949 µM, first compound 10 µM): 20.9% | viability, T/C (second compound 3 µM, first compound 0.0316 µM): 71.3% | viability, T/C (second compound 3 µM, first compound 0.1 µM): 70.8% | viability, T/C (second compound 3 µM, first compound 0.316 µM): 50% | viability, T/C (second compound 3 µM, first compound 1 µM): 49.5% | viability, T/C (second compound 3 µM, first compound 3.16 µM): 51.4% | viability, T/C (second compound 3 µM, first compound 10 µM): 27.5%

IC50 (curve of compound): < 0.00316 µM and 0.023 µM
SMILES: CNC(C)C(=O)NC1CN(S(=O)(=O)c2cccc(S(=O)(=O)N3CCC4CCC(C(=O)NC(c5ccccc5)c5ccccc5)N4C(=O)C(NC(=O)C(C)NC)C3)c2)CCC2CCC(C(=O)NC(c3ccccc3)c3ccccc3)N2C1=O (stereo not drawn)
viability, T/C (compound 0.00316 µM): 48.1% and 88.5% | viability, T/C (compound 0.1 µM): 37.5% [middle of 15 runs]

IC50 (curve of first compound, second compound 0.01 µM): < 0.000316 µM | IC50 (curve of first compound, second compound 0.0316 µM): < 0.000316 µM | IC50 [1]: < 0.000316 µM | IC50 [2]: < 0.000316 µM | IC50 [3]: < 0.000316 µM
SMILES: NC1CCC(NC2CC2c2ccccc2)CC1 (stereo not drawn) + CNC(C)C(=O)NC1CN(S(=O)(=O)c2cccc(S(=O)(=O)N3CCC4CCC(C(=O)NC(c5ccccc5)c5ccccc5)N4C(=O)C(NC(=O)C(C)NC)C3)c2)CCC2CCC(C(=O)NC(c3ccccc3)c3ccccc3)N2C1=O
viability, T/C (second compound 0.01 µM, first compound 0.000316 µM): 27.4% | viability, T/C (second compound 0.01 µM, first compound 0.001 µM): 38.9% | viability, T/C (second compound 0.01 µM, first compound 0.00316 µM): 36.8% | viability, T/C (second compound 0.01 µM, first compound 0.01 µM): 48.5% | viability, T/C (second compound 0.01 µM, first compound 0.0316 µM): 50.3% | viability, T/C (second compound 0.01 µM, first compound 0.1 µM): 45.1% | viability, T/C (second compound 0.0316 µM, first compound 0.000316 µM): 36.4% | viability, T/C (second compound 0.0316 µM, first compound 0.001 µM): 24.9% | viability, T/C (second compound 0.0316 µM, first compound 0.00316 µM): 31.8% | viability, T/C (second compound 0.0316 µM, first compound 0.01 µM): 37.5% | viability, T/C (second compound 0.0316 µM, first compound 0.0316 µM): 28.9% | viability, T/C (second compound 0.0316 µM, first compound 0.1 µM): 30% | viability, T/C (second compound 0.1 µM, first compound 0.000316 µM): 32.6% | viability, T/C (second compound 0.1 µM, first compound 0.001 µM): 27.7% | viability, T/C (second compound 0.1 µM, first compound 0.00316 µM): 33.4% | viability, T/C (second compound 0.1 µM, first compound 0.01 µM): 31.4% | viability, T/C (second compound 0.1 µM, first compound 0.0316 µM): 45.8% | viability, T/C (second compound 0.1 µM, first compound 0.1 µM): 28.4% | viability, T/C (second compound 0.316 µM, first compound 0.000316 µM): 26.7% | viability, T/C (second compound 0.316 µM, first compound 0.001 µM): 33.6% | viability, T/C (second compound 0.316 µM, first compound 0.00316 µM): 37.8% | viability, T/C (second compound 0.316 µM, first compound 0.01 µM): 29.1% | viability, T/C (second compound 0.316 µM, first compound 0.0316 µM): 21.3% | viability, T/C (second compound 0.316 µM, first compound 0.1 µM): 29.5% | viability, T/C (second compound 1 µM, first compound 0.000316 µM): 25.9% | viability, T/C (second compound 1 µM, first compound 0.001 µM): 8.86% | viability, T/C (second compound 1 µM, first compound 0.00316 µM): 23.5% | viability, T/C (second compound 1 µM, first compound 0.01 µM): 20% | viability, T/C (second compound 1 µM, first compound 0.0316 µM): 21.7% | viability, T/C (second compound 1 µM, first compound 0.1 µM): 25.7%

IC50 [1]: 1.74 µM | IC50 [2]: < 0.00949 µM | IC50 [3]: < 0.00949 µM | IC50 (curve of first compound, second compound 3.16 µM): < 0.00949 µM | IC50 (curve of first compound, second compound 10 µM): 0.0268 µM
SMILES: CCN1C(C(=O)NC23CCC(C(=O)O)(CC2)CC3)C(c2cccc(Cl)c2F)C2(C(=O)Nc3cc(Cl)ccc32)C12CCCCC2 (stereo not drawn) + Cc1c(S(C)(=O)=O)c(-c2cc(F)cc(N3CCN(c4ccc(NS(=O)(=O)c5ccc(NC(CCN6CCC(C(=O)OCCCP(=O)(O)O)CC6)CSc6ccccc6)c(S(=O)(=O)C(F)(F)F)c5)cc4)CC3)c2)c(-c2ccc(Cl)cc2)n1C(C)C
viability, T/C (second compound 0.1 µM, first compound 0.00949 µM): 68.7% | viability, T/C (second compound 0.1 µM, first compound 0.03 µM): 60.5% | viability, T/C (second compound 0.1 µM, first compound 0.0949 µM): 57.5% | viability, T/C (second compound 0.1 µM, first compound 0.3 µM): 61.4% | viability, T/C (second compound 0.1 µM, first compound 0.949 µM): 65.5% | viability, T/C (second compound 0.1 µM, first compound 3 µM): 38.7% | viability, T/C (second compound 0.316 µM, first compound 0.00949 µM): 49% | viability, T/C (second compound 0.316 µM, first compound 0.03 µM): 33.9% | viability, T/C (second compound 0.316 µM, first compound 0.0949 µM): 55.8% | viability, T/C (second compound 0.316 µM, first compound 0.3 µM): 30.4% | viability, T/C (second compound 0.316 µM, first compound 0.949 µM): 59.7% | viability, T/C (second compound 0.316 µM, first compound 3 µM): 36.1% | viability, T/C (second compound 1 µM, first compound 0.00949 µM): 48.3% | viability, T/C (second compound 1 µM, first compound 0.03 µM): 47% | viability, T/C (second compound 1 µM, first compound 0.0949 µM): 38.7% | viability, T/C (second compound 1 µM, first compound 0.3 µM): 45.5% | viability, T/C (second compound 1 µM, first compound 0.949 µM): 29.2% | viability, T/C (second compound 1 µM, first compound 3 µM): 40% | viability, T/C (second compound 3.16 µM, first compound 0.00949 µM): 36.8% | viability, T/C (second compound 3.16 µM, first compound 0.03 µM): 34.1% | viability, T/C (second compound 3.16 µM, first compound 0.0949 µM): 34.4% | viability, T/C (second compound 3.16 µM, first compound 0.3 µM): 46.9% | viability, T/C (second compound 3.16 µM, first compound 0.949 µM): 37.9% | viability, T/C (second compound 3.16 µM, first compound 3 µM): 27.5% | viability, T/C (second compound 10 µM, first compound 0.00949 µM): 40.6% | viability, T/C (second compound 10 µM, first compound 0.03 µM): 64.6% | viability, T/C (second compound 10 µM, first compound 0.0949 µM): 52.8% | viability, T/C (second compound 10 µM, first compound 0.3 µM): 38.5% | viability, T/C (second compound 10 µM, first compound 0.949 µM): 40.5% | viability, T/C (second compound 10 µM, first compound 3 µM): 45.9%
